Measured values published in patent US10745400B2, “Inhibition of BMP signaling, compounds, compositions and uses thereof” (Vanderbilt University, priority 2018, dated 2020).
Read-outs that look alike come from different tables or passages of the source.

Legend:
ALK4 = biological target: T1, ALK4 (Homo sapiens, UniProt P36896); assay: Kinase assay (33P-ATP filter-binding), ALK4; assay type: biochemical; details: read-out: Kinase Selectivity ALK4
T1 sequence (P36896 24-505): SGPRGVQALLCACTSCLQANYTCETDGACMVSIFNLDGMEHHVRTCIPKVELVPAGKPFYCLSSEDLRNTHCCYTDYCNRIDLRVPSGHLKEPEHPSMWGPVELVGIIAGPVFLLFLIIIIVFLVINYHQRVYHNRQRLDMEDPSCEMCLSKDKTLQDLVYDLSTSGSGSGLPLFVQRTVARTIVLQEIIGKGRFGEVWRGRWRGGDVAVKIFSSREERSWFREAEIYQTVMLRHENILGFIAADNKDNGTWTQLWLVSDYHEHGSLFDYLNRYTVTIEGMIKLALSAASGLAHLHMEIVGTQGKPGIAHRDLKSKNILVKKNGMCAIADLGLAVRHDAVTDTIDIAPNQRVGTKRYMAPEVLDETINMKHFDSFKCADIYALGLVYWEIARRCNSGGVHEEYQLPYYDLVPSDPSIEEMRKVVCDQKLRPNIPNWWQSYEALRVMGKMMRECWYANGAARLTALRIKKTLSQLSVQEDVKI
Method: (§1) The kinase assays were carried out briefly as follows. Substrate was prepared in Base Reaction Buffer (20 mM Hepes (pH 7.5), 10 mM MgCl2, 1 mM EGTA, 0.02% Brij35, 0.02 mg/ml BSA, 0.1 mM Na3VO4, 2 mM DTT, 1% DMSO). The indicated kinases was delivered into the substrate solution and allowed to gently mix. Next, the specific compound was delivered in DMSO into the kinase mixture by Acoustic technology (Echo550; nanoliter range), and allowed to incubate for 20 minutes at room temperature. Next, ^33P-ATP was delivered into the reaction mixture to initiate the reaction and allowed to incubate at room temperature. After 2 hours, the reactions were spotted onto P81 ion exchange paper and the kinase activity is detected by the filter-binding method.

KDR = KDR (Homo sapiens, UniProt P35968); assay: Kinase assay (33P-ATP filter-binding), KDR; assay type: biochemical; details: read-out: Kinase Selectivity KDR
Method: as §1

ALK5 = biological target: T2, ALK5 (Homo sapiens, UniProt P36897); assay: Kinase assay (33P-ATP filter-binding), ALK5; assay type: biochemical; details: read-out: Kinase Selectivity ALK5
T2 sequence (P36897 34-503): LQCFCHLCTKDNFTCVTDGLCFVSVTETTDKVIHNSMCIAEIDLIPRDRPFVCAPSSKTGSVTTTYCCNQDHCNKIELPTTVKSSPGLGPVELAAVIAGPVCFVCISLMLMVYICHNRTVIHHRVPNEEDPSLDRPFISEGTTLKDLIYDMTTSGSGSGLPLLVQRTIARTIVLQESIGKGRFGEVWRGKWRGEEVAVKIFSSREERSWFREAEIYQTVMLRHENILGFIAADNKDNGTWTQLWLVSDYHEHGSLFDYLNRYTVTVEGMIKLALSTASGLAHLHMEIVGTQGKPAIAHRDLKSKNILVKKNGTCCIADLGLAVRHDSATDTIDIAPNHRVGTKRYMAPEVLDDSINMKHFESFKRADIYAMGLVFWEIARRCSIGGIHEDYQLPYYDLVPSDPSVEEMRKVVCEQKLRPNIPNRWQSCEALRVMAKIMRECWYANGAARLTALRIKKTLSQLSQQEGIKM
Method: as §1

BMPR2 = biological target: T3, BMPR2 (Homo sapiens, UniProt Q13873); assay: Kinase assay (33P-ATP filter-binding), BMPR2; assay type: biochemical; details: read-out: Kinase Selectivity BMPR2
T3 sequence (Q13873 27-1038): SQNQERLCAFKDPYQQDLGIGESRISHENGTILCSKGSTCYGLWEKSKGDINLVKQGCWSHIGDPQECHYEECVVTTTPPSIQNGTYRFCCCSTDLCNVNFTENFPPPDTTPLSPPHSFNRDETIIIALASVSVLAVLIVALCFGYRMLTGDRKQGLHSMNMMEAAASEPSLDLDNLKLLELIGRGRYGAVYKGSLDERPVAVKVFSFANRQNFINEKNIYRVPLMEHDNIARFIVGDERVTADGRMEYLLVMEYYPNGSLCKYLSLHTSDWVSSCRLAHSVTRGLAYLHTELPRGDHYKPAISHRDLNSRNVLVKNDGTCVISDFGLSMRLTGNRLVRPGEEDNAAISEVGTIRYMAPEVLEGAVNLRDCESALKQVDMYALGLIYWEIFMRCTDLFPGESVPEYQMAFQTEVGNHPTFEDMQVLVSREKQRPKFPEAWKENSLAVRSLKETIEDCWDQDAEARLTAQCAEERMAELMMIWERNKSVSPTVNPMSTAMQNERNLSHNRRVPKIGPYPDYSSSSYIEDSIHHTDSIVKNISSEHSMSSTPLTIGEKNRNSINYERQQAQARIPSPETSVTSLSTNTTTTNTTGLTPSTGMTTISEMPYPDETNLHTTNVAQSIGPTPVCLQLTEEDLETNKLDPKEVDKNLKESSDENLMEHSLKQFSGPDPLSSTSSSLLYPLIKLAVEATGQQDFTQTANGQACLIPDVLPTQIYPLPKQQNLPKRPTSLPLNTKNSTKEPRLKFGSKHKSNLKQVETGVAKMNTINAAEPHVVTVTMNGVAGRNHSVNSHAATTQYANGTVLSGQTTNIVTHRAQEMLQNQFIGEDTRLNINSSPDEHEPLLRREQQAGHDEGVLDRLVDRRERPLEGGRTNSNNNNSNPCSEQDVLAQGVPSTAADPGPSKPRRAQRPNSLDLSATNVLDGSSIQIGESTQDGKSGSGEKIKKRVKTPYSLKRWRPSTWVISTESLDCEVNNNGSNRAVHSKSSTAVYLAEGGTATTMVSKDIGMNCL
Method: as §1

AMPK = assay: Kinase assay (33P-ATP filter-binding), AMPK; assay type: biochemical; details: read-out: Kinase Selectivity AMPK
Method: as §1

PDGFRb = PDGFRb (Homo sapiens, UniProt P09619); assay: Kinase assay (33P-ATP filter-binding), PDGFRb; assay type: biochemical; details: read-out: Kinase Selectivity PDGFRb
Method: as §1

[1] = Intrinsic clearance, human; assay type: in vitro ADME; details: human
[2] = CL-Hep, value in parentheses, read-out: Intrinsic Clearance Human (CL-Hep)
[3] = read-out: Intrinsic Clearance Human

Chain of PDGFRb (P09619 33-1106, species assumed): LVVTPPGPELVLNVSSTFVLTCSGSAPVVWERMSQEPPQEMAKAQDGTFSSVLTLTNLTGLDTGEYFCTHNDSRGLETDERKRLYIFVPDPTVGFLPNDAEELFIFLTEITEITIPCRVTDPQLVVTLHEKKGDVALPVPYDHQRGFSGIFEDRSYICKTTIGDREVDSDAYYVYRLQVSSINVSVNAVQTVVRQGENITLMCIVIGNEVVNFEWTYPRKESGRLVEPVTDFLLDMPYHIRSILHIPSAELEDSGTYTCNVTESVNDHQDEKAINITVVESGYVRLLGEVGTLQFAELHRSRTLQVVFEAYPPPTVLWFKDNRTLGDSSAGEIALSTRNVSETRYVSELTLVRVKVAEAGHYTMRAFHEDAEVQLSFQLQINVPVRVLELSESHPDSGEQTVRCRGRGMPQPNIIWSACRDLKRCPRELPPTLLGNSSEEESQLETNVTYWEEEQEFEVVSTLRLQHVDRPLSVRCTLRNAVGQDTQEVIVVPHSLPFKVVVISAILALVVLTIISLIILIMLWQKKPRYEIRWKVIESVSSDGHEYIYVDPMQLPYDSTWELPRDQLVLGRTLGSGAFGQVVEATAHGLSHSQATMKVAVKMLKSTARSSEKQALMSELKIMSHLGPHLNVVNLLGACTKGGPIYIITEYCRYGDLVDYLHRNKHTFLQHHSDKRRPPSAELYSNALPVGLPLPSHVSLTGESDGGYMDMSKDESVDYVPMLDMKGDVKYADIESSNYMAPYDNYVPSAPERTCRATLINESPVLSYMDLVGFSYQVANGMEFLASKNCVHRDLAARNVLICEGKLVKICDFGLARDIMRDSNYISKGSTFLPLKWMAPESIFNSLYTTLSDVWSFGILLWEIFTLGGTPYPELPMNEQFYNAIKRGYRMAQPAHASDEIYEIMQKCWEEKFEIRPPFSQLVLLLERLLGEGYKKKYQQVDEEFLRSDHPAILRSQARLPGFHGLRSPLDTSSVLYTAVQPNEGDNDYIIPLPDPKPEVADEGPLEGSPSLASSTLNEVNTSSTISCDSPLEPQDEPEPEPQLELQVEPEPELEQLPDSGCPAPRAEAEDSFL
Chain of KDR (P35968 20-1356, species assumed): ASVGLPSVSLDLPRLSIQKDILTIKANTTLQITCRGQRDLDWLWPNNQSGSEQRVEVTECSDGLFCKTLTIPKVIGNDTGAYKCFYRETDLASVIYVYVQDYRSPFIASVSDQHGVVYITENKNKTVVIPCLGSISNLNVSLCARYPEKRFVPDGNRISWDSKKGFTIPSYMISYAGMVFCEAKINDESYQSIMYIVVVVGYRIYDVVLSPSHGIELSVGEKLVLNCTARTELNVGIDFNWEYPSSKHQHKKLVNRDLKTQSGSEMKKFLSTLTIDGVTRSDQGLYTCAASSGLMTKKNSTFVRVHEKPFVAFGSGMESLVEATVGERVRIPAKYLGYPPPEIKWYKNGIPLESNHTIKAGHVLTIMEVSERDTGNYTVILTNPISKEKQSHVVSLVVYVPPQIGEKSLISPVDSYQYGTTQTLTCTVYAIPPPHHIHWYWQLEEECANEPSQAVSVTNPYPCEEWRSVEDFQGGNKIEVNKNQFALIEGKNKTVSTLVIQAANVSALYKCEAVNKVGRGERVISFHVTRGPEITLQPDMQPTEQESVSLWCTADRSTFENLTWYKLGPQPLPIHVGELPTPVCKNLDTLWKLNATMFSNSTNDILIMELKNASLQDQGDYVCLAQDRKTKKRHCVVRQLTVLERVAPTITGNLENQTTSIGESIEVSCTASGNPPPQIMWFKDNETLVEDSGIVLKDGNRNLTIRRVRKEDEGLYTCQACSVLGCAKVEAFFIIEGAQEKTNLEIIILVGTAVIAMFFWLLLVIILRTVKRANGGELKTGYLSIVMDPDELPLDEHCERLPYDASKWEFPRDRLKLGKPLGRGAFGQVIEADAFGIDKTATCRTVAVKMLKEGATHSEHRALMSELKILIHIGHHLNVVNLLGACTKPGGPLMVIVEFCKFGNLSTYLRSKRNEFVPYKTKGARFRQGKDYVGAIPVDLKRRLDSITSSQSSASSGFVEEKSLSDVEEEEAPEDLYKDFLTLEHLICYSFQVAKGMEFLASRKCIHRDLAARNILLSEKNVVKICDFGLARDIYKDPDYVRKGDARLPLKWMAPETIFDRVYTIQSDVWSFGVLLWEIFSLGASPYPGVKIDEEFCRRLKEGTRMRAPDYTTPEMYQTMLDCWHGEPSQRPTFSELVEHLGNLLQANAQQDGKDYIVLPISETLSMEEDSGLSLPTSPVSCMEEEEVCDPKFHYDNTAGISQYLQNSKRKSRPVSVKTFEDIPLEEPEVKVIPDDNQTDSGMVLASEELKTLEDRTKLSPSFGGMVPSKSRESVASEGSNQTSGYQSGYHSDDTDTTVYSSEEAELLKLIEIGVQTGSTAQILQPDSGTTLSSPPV

Structure (SMILES) | IC50 (ALK4) [µM] | IC50 (KDR) [µM] | IC50 (ALK5) [µM] | IC50 (BMPR2) [µM] | IC50 (AMPK) [µM] | IC50 (PDGFRb) [µM] | CLint scaled [1, 2] [mL/min/kg] | CLint scaled [1, 3] [mL/min/kg]
Cc1cc(-c2cnc3cc(-c4ccc(C5COCC(C)N5)cc4)ccn23)c2cc(F)cc(F)c2n1 (stereo not drawn) [Compound 23] | 0.164 | 47.4 | 0.354 | > 100 | > 100 | 7.34 | 17.5 | 139
Cc1cc(-c2cnc3cc(-c4ccc(C5COC6(CCNC6)CN5)cc4)ccn23)c2cc(F)cc(F)c2n1 (stereo not drawn) [Compound 27] | 2.03 | > 100 | 3.29 | > 100 | 18.9 | 21.7 | < 10.7 | < 23.1
NS(=O)(=O)c1ccc(-c2cnc3cc(-c4ccc(C5CNCCN5)cc4)ccn23)c2ccccc12 (stereo not drawn) [Compound 37] | 0.386 | 31.4 | 0.456 | > 100 | 9.32 | 6.49 | < 11 | < 23.1
c1cnc2nccc(-c3cnc4cc(-c5ccc(C6CNCCN6)cc5)ccn34)c2c1 (stereo not drawn) [Compound 32] | 0.192 | 9.35 | 0.31 | 54.4 | 20 | 2.82 | < 11 | < 23.1
c1cc(-c2cnc3cc(-c4ccc(C5CNCCN5)cc4)ccn23)c2cccnc2c1 (stereo not drawn) [Compound 33] | 0.775 | 39.3 | 1.14 | > 100 | 39.1 | 7.7 | < 11 | < 23.1
O=C1CNC(=O)C(c2ccc(-c3ccn4c(-c5cccc6ncccc56)cnc4c3)cc2)N1 (stereo not drawn) [Compound 36] | 0.39 | 36.9 | 0.717 | > 100 | 11.5 | 6.93 |  | 
Cc1cc(-c2cnc3cc(-c4ccc(C5COC6(CCNCC6)CN5)cc4)ccn23)c2cc(F)cc(F)c2n1 (stereo not drawn) [Compound 16] | 0.775 | 39.3 | 1.14 | > 100 | 39.1 | 7.7 | < 10.7 | < 23.1
